This note sets out measurements from EP4755881A1 (Wuhan Createrna Science and Technology Co., Ltd., priority 2023, dated 2025).

Like-named read-outs stand apart in the source and are kept apart here.

The target in data set [1] is hLPAR1 (human lysophosphatidic acid receptor 1, Accession No.: NM_001401.4) (Homo sapiens, UniProt Q92633). The data set is described as follows: cell-based. To be noted: FLIPR method, CHO-K1 cells overexpressing hLPAR1. In a few lines:
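Antagonist mode in CHO-K1 cells stably expressing hLPAR1, Fluo-4 loaded; compound preincubated 30 min at room temperature before 1 µM oleoyl-LPA (final) challenge.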

The nature of data set [2]: Pharmacokinetic study in rats (oral gavage and tail vein injection, plasma LC-MS/MS). It counts as in vivo. To be noted: rat; for Cmax: read-out: Cmax. As for the experimental part: Male SPF-grade SD rats (Beijing Vital River Laboratory Animal Technology Co., Ltd.) with a body weight range of 200 to 250 g were used. After acclimatization, the rats were administered a clear solution of the compound of the present disclosure via oral gavage (Po, fasted overnight before administration with free access to water, food returned 4 hours after administration) and tail vein injection (Iv, free access to food and water throughout the administration). Blood samples were collected from the orbital venous plexus/jugular vein of rats at specified time points after administration (blood collection time points for the PO group: 0.167, 0.5, 1, 2, 4, 6, 8, and 24 h; for the IV group: 0.033, 0.167, 1, 2, 4, 6, 8, and 24 h). The concentration of compounds in plasma was detected by LC-MS/MS (AB SCIEX Qtrap4500). Data were analyzed using WinNonlin (version 5.2.1 Pharsight, Mountain View, CA) with a non-compartmental model to obtain PK parameters (including Cmax, C0, Tmax, AUClast, AUCinf, T1/2, etc.).
Table 3: Results of in vivo pharmacokinetic studies of compounds of the present disclosure in rats
The vehicle for the Po group compound was 5% DMSO + 5% ethanol + 60% PEG400 + 30% normal saline; the vehicle for the Iv group compound was 10% ethanol + 20% pure water + 70% PEG400 solution.

The mark [3] stands for this setting: Table 1, read-out: LPAR1 inhibitory activity IC50.
[4] abbreviates: LPAR1 inhibitory activity IC50, Table 1.

Sequence of hLPAR1 (human lysophosphatidic acid receptor 1, Accession No.: NM_001401.4) (Q92633 whole entry): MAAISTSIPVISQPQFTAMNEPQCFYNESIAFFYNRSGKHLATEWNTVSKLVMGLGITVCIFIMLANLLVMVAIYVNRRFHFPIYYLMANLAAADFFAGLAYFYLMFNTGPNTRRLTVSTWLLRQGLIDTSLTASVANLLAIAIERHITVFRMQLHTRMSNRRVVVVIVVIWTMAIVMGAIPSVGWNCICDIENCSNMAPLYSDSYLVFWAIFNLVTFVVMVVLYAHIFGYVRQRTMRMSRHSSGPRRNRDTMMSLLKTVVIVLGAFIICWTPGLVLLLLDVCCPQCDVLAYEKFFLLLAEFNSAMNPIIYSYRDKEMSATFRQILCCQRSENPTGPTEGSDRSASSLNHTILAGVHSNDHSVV

As to `C[C@H](CC(C)(F)F)OC(=O)Nc1c(-c2ccc(C#CC3(CC(=O)O)CC3)c(Cl)n2)nnn1C` [compound 210, (R)-2-(1-((2-chloro-6-(5-((((4,4-difluoropentan-2-yl)oxy)carbonyl)amino)-1-methyl-1H-1,2,3-triazol-4-yl)pyridin-3-yl)ethynyl)cyclopropyl)acetic acid], the IC50 in data set [1] (setting [3]) came out at 24.9 nM. Besides, the half-life in data set [2] (male, SD, iv, 1 mg/kg) is 371 min; in data set [2] (male, SD, po, 1 mg/kg) it was 365 min. The exposure AUC(0-t) in data set [2] (male, SD rats, Iv, 1 mg/kg) is 5000 to 10000 ng·h/mL; in data set [2] (male, SD rats, Po, 1 mg/kg), 3000 to 5000 ng·h/mL. The Cmax fell in the range of 800 to 5000 ng/mL in data set [2] (male, SD rats, Iv, 1 mg/kg) and 200 to 800 ng/mL in data set [2] (male, SD rats, Po, 1 mg/kg).
As for `Cc1nc(-c2nnn(C)c2CNc2nccc(C3CCC3)n2)ccc1C#CC1(CC(=O)O)CC1` [compound 214, 2-(1-((6-(5-(((4-cyclobutylpyrimidin-2-yl)amino)methyl)-1-methyl-1H-1,2,3-triazol-4-yl)-2-methylpyridin-3-yl)ethynyl)cyclopropyl)acetic acid], the half-inhibitory concentration (IC50) in data set [1] (setting [3]) was determined as 9.4 nM. Moreover, the half-life in data set [2] (male, SD, iv, 1 mg/kg) is 421 min; in data set [2] (male, SD, po, 3 mg/kg), 493 min. The exposure AUC(0-t) in data set [2] (male, SD rats, Iv, 1 mg/kg) was 3000 to 5000 ng·h/mL; in data set [2] (male, SD rats, Po, 3 mg/kg) it was 10000 to 20000 ng·h/mL. The Cmax is 800 to 5000 ng/mL in data set [2] (male, SD rats, Iv, 1 mg/kg) and 800 to 5000 ng/mL in data set [2] (male, SD rats, Po, 3 mg/kg).
`Cc1nc(-c2nnn(C)c2CNC(=O)OCc2ccccc2)ccc1C#CC1(CC(=O)O)CC1` [compound 215] displayed an IC50 in data set [1] (setting [4]) of 43 nM. Also, in data set [2] (SD rats, Iv, 1 mg/kg), the AUC(0-t) fell in the range of 1200 to 3000 ng·h/mL, the half-life was 302 min and the maximum concentration (Cmax) was in the range of 800 to 5000 ng/mL. In data set [2] (SD rats, Po, 3 mg/kg), the AUC(0-t) is 5000 to 10000 ng·h/mL, the half-life is 269 min and the Cmax is 800 to 5000 ng/mL.
For `Cc1nc(-c2nnn(C)c2COc2nccc(C3CC(F)(F)C3)n2)ccc1C#CC1(CC(=O)O)CC1` [compound 216, 2-(1-((6-(5-(((4-(3,3-difluorocyclobutyl)pyrimidin-2-yl)oxy)methyl)-1-methyl-1H-1,2,3-triazol-4-yl)-2-methylpyridin-3-yl)ethynyl)cyclopropyl)acetic acid], in data set [1] (setting [3]), the half-maximal inhibitory concentration (IC50) turned out to be 23.3 nM. The half-life is 294 min in data set [2] (male, SD, iv, 1 mg/kg) and 266 min in data set [2] (male, SD, po, 3 mg/kg). Moreover, the area under the curve AUC(0-t) in data set [2] (male, SD rats, Iv, 1 mg/kg) lay within 1200 to 3000 ng·h/mL; in data set [2] (male, SD rats, Po, 3 mg/kg), 5000 to 10000 ng·h/mL. For the same molecule, the Cmax was 5000 to 8000 ng/mL in data set [2] (male, SD rats, Iv, 1 mg/kg) and 800 to 5000 ng/mL in data set [2] (male, SD rats, Po, 3 mg/kg).
For `Cc1nc(-c2nnn(C)c2CNC(=O)OCCC(C)C)ccc1C#CC1(CC(=O)O)CC1` [compound 253], in data set [1] (setting [3]), the IC50 was 72.3 nM. The half-life in data set [2] (male, SD, iv, 1 mg/kg) was 244 min; in data set [2] (male, SD, po, 3 mg/kg), 207 min. In addition, the area under the curve AUC(0-t) lay within 1200 to 3000 ng·h/mL in data set [2] (male, SD rats, Iv, 1 mg/kg) and 5000 to 10000 ng·h/mL in data set [2] (male, SD rats, Po, 3 mg/kg). The Cmax in data set [2] (male, SD rats, Iv, 1 mg/kg) lay within 5000 to 8000 ng/mL; in data set [2] (male, SD rats, Po, 3 mg/kg), 800 to 5000 ng/mL.
As to `Cc1nc(-c2nnn(C)c2CNc2nccc(C3CC(F)(F)C3)n2)ccc1C#CC1(CC(=O)O)CC1` [compound 254], in data set [1] (setting [3]), the half-inhibitory concentration (IC50) was determined as 63.9 nM. The half-life in data set [2] (male, SD, iv, 1 mg/kg) is 422 min; in data set [2] (male, SD, po, 1 mg/kg), 308 min. Also, the area under the curve AUC(0-t) lay within 3000 to 5000 ng·h/mL in data set [2] (male, SD rats, Iv, 1 mg/kg) and 3000 to 5000 ng·h/mL in data set [2] (male, SD rats, Po, 1 mg/kg). In addition, the peak concentration (Cmax) was 5000 to 8000 ng/mL in data set [2] (male, SD rats, Iv, 1 mg/kg) and 200 to 800 ng/mL in data set [2] (male, SD rats, Po, 1 mg/kg).
In data set [1] (setting [4]), `Cc1nc(-c2nnn(C)c2NC(=O)O[C@H](C)CC(C)(C)F)ccc1C#CC1(CC(=O)O)CC1` [compound 263] gave an IC50 of 52.8 nM. Further, in data set [2] (SD rats, Iv, 1 mg/kg), the AUC(0-t) fell in the range of 3000 to 5000 ng·h/mL, the half-life is 828 min and the Cmax lay in the range of 800 to 5000 ng/mL. For the same molecule, in data set [2] (SD rats, Po, 1 mg/kg), the AUC(0-t) lay in the range of 5000 to 10000 ng·h/mL, the half-life is 612 min and the highest concentration (Cmax) lay within 200 to 800 ng/mL.
As to `Cc1nc(-c2nnn(C)c2NC(=O)O[C@H](C)C(F)(F)C(C)C)ccc1C#CC1(CC(=O)O)CC1` [compound 265], the IC50 in data set [1] (setting [3]) was 21.5 nM. Moreover, the half-life in data set [2] (male, SD, iv, 0.63 mg/kg) is 469 min; in data set [2] (male, SD, po, 1 mg/kg) it was 510 min. For the same molecule, the AUC(0-t) in data set [2] (male, SD rats, Iv, 0.63 mg/kg) was 1200 to 3000 ng·h/mL; in data set [2] (male, SD rats, Po, 1 mg/kg), 3000 to 5000 ng·h/mL. For the same molecule, the Cmax fell in the range of 800 to 5000 ng/mL in data set [2] (male, SD rats, Iv, 0.63 mg/kg) and 200 to 800 ng/mL in data set [2] (male, SD rats, Po, 1 mg/kg).
On to `Cc1nc(-c2nnn(C)c2NC(=O)O[C@H](C)CC(C)(F)F)ccc1C#CC1(CC(=O)O)CCC1` [compound 324], for which, in data set [1] (setting [3]), the IC50 is 50.3 nM. The half-life in data set [2] (male, SD, iv, 1 mg/kg) is 726 min; in data set [2] (male, SD, po, 1 mg/kg), 344 min. In addition, the AUC(0-t) in data set [2] (male, SD rats, Iv, 1 mg/kg) lay within 3000 to 5000 ng·h/mL; in data set [2] (male, SD rats, Po, 1 mg/kg), 5000 to 10000 ng·h/mL. Moreover, the highest concentration (Cmax) in data set [2] (male, SD rats, Iv, 1 mg/kg) was 800 to 5000 ng/mL; in data set [2] (male, SD rats, Po, 1 mg/kg), 800 to 5000 ng/mL.

Broadly, the IC50 is the point on the concentration scale where inhibition reaches its midpoint. What is called half-life is the time needed for the level to fall by half in the phase considered. A word on the AUC(0-t): it is exposure summed from dosing to a finite time, without extrapolation to infinity. A lower AUC(0-t) goes with less exposure. A word on the Cmax: it is the highest concentration seen after dosing.
